Laboratory results: patent publication US7612071B2, “Compositions and methods employing aminopterin” (Syntrix Biosystems, Inc., priority 2004, dated 2009)
Read-outs that look alike come from different tables or passages of the source.

What was measured:
[1] = tested on: standard and high-risk ALL; details: for Toxicity Component: Antifolate dose causing 5.8% of the population to have the toxicity: Elevations in liver enzymes >5 times normal (severe hepatotoxicity)
[2] = MTX 15-25 mg/m^2, pediatric patients, n=22, prior art; cited from earlier work
[3] = mice, 4 weekly ip doses (aminopterin 0.03 mg/kg, methotrexate 0.3 mg/kg); days 1 and 22 after last dose
[4] = MTX 15-25 mg/m^2 PO, n=22, prior art; cited from earlier work
[5] = MTX 15-25 mg/m^2 PO, n=38, prior art; cited from earlier work
[6] = oral doses greater than about 7.5 mg/m^2; cited from earlier work
[7] = AMT 2 mg/m^2 PO x 2 (n=75), MTX 25 mg/m^2 PO x 4 (n=41)
[8] = AMT 2 mg/m^2 PO x 2 (n=81), MTX 25 mg/m^2 PO x 4 (n=42)
[9] = AMT 2 mg/m^2 PO x 2 (n=104), MTX 25 mg/m^2 PO x 4 (n=63)

CN(Cc1cnc2nc(N)nc(N)c2n1)c1ccc(C(=O)N[C@@H](CCC(=O)O)C(=O)O)cc1 [MTX, methotrexate, reference compound]
Event-free survival (EFS) at 24-months, Kaplan Meier ([1]; 25 high risk patients receiving aminopterin, standard risk patients receiving methotrexate): 86%
Coefficient of variation of toxicity, absolute neutrophil count in consolidation [1, 7]: 85%
Mean absolute neutrophil count in consolidation [1, 7]: 1919 cells/μL
Coefficient of variation of toxicity, platelet counts in consolidation [1, 8]: 47%
Mean platelet counts in consolidation [1, 8]: 312 cells × 10^3/μL
Coefficient of variation of toxicity, level of liver enzymes above normal [1, 9]: 36%
Mean level of liver enzymes above normal [1, 9]: 177 IU/L ALT
Coefficient of variation of toxicity, level of liver enzymes above normal ([1]; AMT 2 mg/m^2 PO x 2 (n=104), MTX 25 mg/m^2 PO x 4 (n=63), listed as methotrexate): 36%
Toxicity Component: Antifolate dose with same toxicity as MTX at 100 mg/m^2/wk ([1]; Any elevation of liver enzymes): 100 mg/m^2/wk
Toxicity Component: Antifolate dose causing 5.8% of the population to have the toxicity [1]: <100 mg/m^2/wk
Toxicity Component: Antifolate dose causing 5.8% of the population to have the toxicity ([1]; listed as methotrexate): less than 100 mg/m^2/wk
Toxicity Component: Antifolate dose with same toxicity as MTX at 100 mg/m^2/wk ([1]; Hospital admissions): 100 mg/m^2/wk
Toxicity Component: Antifolate dose with same toxicity as MTX at 100 mg/m^2/wk ([1]; Mucositis): 100 mg/m^2/wk
Toxicity Component: Antifolate dose with same toxicity as MTX at 100 mg/m^2/wk ([1]; Myelosuppression): 100 mg/m^2/wk
Toxicity Component: Antifolate dose with same toxicity as MTX at 100 mg/m^2/wk ([1]; Neutropenia): 100 mg/m^2/wk
Toxicity Component: Antifolate dose with same toxicity as MTX at 100 mg/m^2/wk ([1]; Thrombocytopenia): 100 mg/m^2/wk
Toxicity Component: Antifolate dose with same toxicity as MTX at 100 mg/m^2/wk ([1]; Treatment interruptions): 100 mg/m^2/wk
Toxicity Component: Antifolate dose with same toxicity as MTX at 100 mg/m^2/wk ([1]; eAMT and eMTX (marrow exposure)): 100 mg/m^2/wk
Interpatient oral bioavailability (%) [2]: 44%
Maximum (%) oral bioavailability [2]: 95%
Minimum (%) oral bioavailability [2]: 6%
antifolate content in liver, aminopterin vs methotrexate [3]: no different
Interpatient coefficient of variation of oral bioavailability [4]: 59%
Mean intrapatient coefficient of variation of oral bioavailability [5]: 34%
oral bioavailability [6]: ≤ 44%
